Earlier results as cited in US11883460B2, “Antibiotic compositions for treating bacterial infections” (AGENCY FOR SCIENCE, TECHNOLOGY AND RESEARCH, priority 2014, dated 2024).

Settings: compared with colistimethate sodium

## Colistin sulfate
  Stability in human plasma: more stable than colistimethate sodium
